target: Voltage-dependent L-type calcium channel subunit alpha-1C (Sus scrofa); test: Inhibition of [3H]nitrendipine binding to L-type calcium channel dihydropyridine site of porcine cardiac sarcolemma membrane vesicles

Compound	Ki
CCOC(=O)C1=C(C)N=C(C)C(=C(O)OCC)C1c1cc([N+](=O)[O-])ccc1SC (centres undefined)	80 nM
CCOC(=O)[C@H]1[C@H]2/C(=C(\O)OCC)C(C)=N[C@]1(C)Sc1ccccc12	5000 nM
CCOC(=O)[C@@H]1[C@H]2/C(=C(\O)OCC)C(C)=N[C@]1(C)Sc1cc([N+](=O)[O-])ccc12	3000 nM
CCOC(=O)[C@H]1[C@H]2/C(=C(\O)OCC)C(C)=N[C@]1(C)Sc1cc([N+](=O)[O-])ccc12	5000 nM
CCOC(=O)[C@H]1[C@H]2/C(=C(\O)OCC)C(C)=N[C@]1(C)Sc1ccc([N+](=O)[O-])cc12	650 nM
CCOC(=O)[C@H]1[C@H]2/C(=C(\O)OCC)C(C)=N[C@]1(C)Sc1c2cccc1[N+](=O)[O-]	250 nM
CCOC(=O)[C@@H]1[C@H]2/C(=C(\O)OCC)C(C)=N[C@]1(C)Sc1ccccc12	500 nM
CCOC(=O)[C@@H]1[C@H]2/C(=C(\O)OCC)C(C)=N[C@]1(C)Sc1ccc([N+](=O)[O-])cc12	30 nM
CCOC(=O)[C@@H]1[C@H]2/C(=C(\O)OCC)C(C)=N[C@]1(C)Sc1c2cccc1[N+](=O)[O-]	6000 nM

— BindingDB's records for doi:10.1021/jm00387a019 (1987)
